Reference: US6737383B1, “Herbicidal oxadiazolidines” (priority 1999, dated 2004)

What was measured:
blackgrass = experiment: Test B pre/postemergence blackgrass; format: in vivo, Alopecurus myosuroides
Text: (§1) Seeds of bedstraw (Galium aparine), blackgrass (Alopecurus myosuroides), surinam grass (Brachiaria decumbens), cocklebur (Xanthium strumarium), corn (Zea mays), crabgrass (Digitaria sanguinalis), giant foxtail (Setaria faberii), morningglory (Ipomoea hederacea), pigweed (Amaranthus retroflexus), rape (Brassica napus), soybean (Glycine max), sugar beet (Beta vulgaris), velvetleaf (Abutilon theophrasti), wheat (Triticum aestivum), wild oat (Avena fatua) and purple nutsedge (Cyperus rotundus) tubers were planted and treated preemnergence with test chemicals formulated in a non-phytotoxic solvent mixture which included a surfactant.
(§2) At the same time, these crop and weed species were also treated with postemergence applications of test chemicals formulated in the same manner. Plants ranged in height from 2 to 18 cm (1- to 4-leaf stage) for postemergence treatments. Plant species in the flood test consisted of rice (Oryza sativa), smallflower flatsedge (Cyperus difformis), duck salad (Heteranthera limosa) and bamyardgrass (Echinochloa crus-galli) grown to the 2-leaf stage for testing. Treated plants and controls were maintained in a greenhouse for twelve to sixteen days, after which all species were compared to controls and visually evaluated. Plant response ratings, summarized in Table B, are based on a scale of 0 to 10 where 0 is no effect and 10 is complete control. A dash (−) response means no test result.

morningglory = experiment: Test B pre/postemergence morningglory; format: in vivo, Ipomoea hederacea
Text: as §1, §2

giant foxtail = experiment: Test B pre/postemergence giant foxtail; format: in vivo, Setaria faberii
Text: as §1, §2

sugar beet = experiment: Test B pre/postemergence sugar beet; format: in vivo, Beta vulgaris
Text: as §1, §2

surinam grass = experiment: Test B pre/postemergence surinam grass; format: in vivo, Brachiaria decumbens
Text: as §1, §2

cocklebur = experiment: Test B pre/postemergence cocklebur; format: in vivo, Xanthium strumarium
Text: as §1, §2

pigweed = experiment: Test B pre/postemergence pigweed; format: in vivo, Amaranthus retroflexus
Text: as §1, §2

bedstraw = experiment: Test B pre/postemergence bedstraw; format: in vivo, Galium aparine
Text: as §1, §2

purple nutsedge = experiment: Test B pre/postemergence purple nutsedge; format: in vivo, Cyperus rotundus
Text: as §1, §2

wild oat = experiment: Test B pre/postemergence wild oat; format: in vivo, Avena fatua
Text: as §1, §2

velvetleaf = experiment: Test B pre/postemergence velvetleaf; format: in vivo, Abutilon theophrasti
Text: as §1, §2

soybean = experiment: Test B pre/postemergence soybean; format: in vivo, Glycine max
Text: as §1, §2

rape = experiment: Test B pre/postemergence rape; format: in vivo, Brassica napus
Text: as §1, §2

corn = experiment: Test B pre/postemergence corn; format: in vivo, Zea mays
Text: as §1, §2

wheat = experiment: Test B pre/postemergence wheat; format: in vivo, Triticum aestivum
Text: as §1, §2

crabgrass = experiment: Test B pre/postemergence crabgrass; format: in vivo, Digitaria sanguinalis
Text: as §1, §2

[1] = Preemergence, Rate 62 g/ha, scale of 0 to 10 where 0 is no effect and 10 is complete control
[2] = Preemergence, Rate 250 g/ha, scale of 0 to 10 where 0 is no effect and 10 is complete control
[3] = Preemergence, Rate 500 g/ha, scale of 0 to 10 where 0 is no effect and 10 is complete control
[4] = Rate 62 g/ha, Postemergence, scale of 0 to 10 where 0 is no effect and 10 is complete control
[5] = Rate 125 g/ha, Postemergence, scale 0 to 10
[6] = Rate 125 g/ha, Preemergence, scale of 0 to 10 where 0 is no effect and 10 is complete control
[7] = Rate 500 g/ha, Postemergence, scale 0 to 10, 0 no effect, 10 complete control

With `COC(=O)C=CCn1c(=O)on(C(=O)N(c2ccc(F)cc2)C(C)C)c1=O` [Compound 263] the “Blackgrass plant response rating” value (blackgrass; [1]) was 0, the “Blackgrass plant response rating” value (blackgrass; [2]) was 0 and the “Plant response rating, Blackgrass” value (blackgrass; [3]) was 0. For the same compound, the “Blackgrass plant response rating” value (blackgrass; [4]) was 0, the “Blackgrass plant response rating” value (blackgrass; [5]) was 0 and the “Blackgrass plant response rating” value (blackgrass; [6]) was 0. For the same compound, the “Plant response rating (0 to 10; 0 is no effect, 10 is complete control), Blackgrass” value (blackgrass; Rate 250 g/ha, Postemergence) was 3, the “Blackgrass plant response rating” value (blackgrass; [7]) was 5 and the “Morningglory plant response rating” value (morningglory; [1]) was 0. The “Morningglory plant response rating” value (morningglory; [2]) was 0, the “Plant response rating, Morningglory” value (morningglory; [3]) was 0 and the “Morningglory plant response rating” value (morningglory; [6]) was 0. The “Plant response rating (0 to 10; 0 is no effect, 10 is complete control), Morningglory” value (morningglory; Rate 250 g/ha, Postemergence) was 4, the “Morningglory plant response rating” value (morningglory; [7]) was 7 and the “Giant foxtail plant response rating” value (giant foxtail; [1]) was 2. For the same compound, the “Giant foxtail plant response rating” value (giant foxtail; [2]) was 9, the “Plant response rating, Giant foxtail” value (giant foxtail; [3]) was 9 and the “Giant foxtail plant response rating” value (giant foxtail; [6]) was 9. The “Plant response rating (0 to 10; 0 is no effect, 10 is complete control), Giant foxtail” value (giant foxtail; Rate 250 g/ha, Postemergence) was 0, the “Giant foxtail plant response rating” value (giant foxtail; [7]) was 3 and the “Sugarbeets plant response rating” value (sugar beet; [1]) was 0. For the same compound, the “Sugarbeets plant response rating” value (sugar beet; [2]) was 0, the “Plant response rating, Sugarbeets” value (sugar beet; [3]) was 0 and the “Sugarbeets plant response rating” value (sugar beet; [6]) was 0. The “Sugarbeets plant response rating” value (sugar beet; [7]) was 0, the “B. signalgrass plant response rating” value (surinam grass; [1]) was 0 and the “B. signalgrass plant response rating” value (surinam grass; [2]) was 0. For the same compound, the “Plant response rating, B. signalgrass” value (surinam grass; [3]) was 0, the “B. signalgrass plant response rating” value (surinam grass; [4]) was 0 and the “B. signalgrass plant response rating” value (surinam grass; Rate 125 g/ha, Postemergence, scale 0 (no effect) to 10 (complete control)) was 0. For the same compound, the “B. signalgrass plant response rating” value (surinam grass; [6]) was 0, the “Plant response rating (0 to 10; 0 is no effect, 10 is complete control), B. signalgrass” value (surinam grass; Rate 250 g/ha, Postemergence) was 0 and the “B. signalgrass plant response rating” value (surinam grass; [7]) was 0. For the same compound, the “Cocklebur plant response rating” value (cocklebur; [1]) was 0, the “Cocklebur plant response rating” value (cocklebur; [2]) was 0 and the “Cocklebur plant response rating” value (cocklebur; [4]) was 0. The “Cocklebur plant response rating” value (cocklebur; [5]) was 0, the “Cocklebur plant response rating” value (cocklebur; [6]) was 0 and the “Plant response rating (0 to 10; 0 is no effect, 10 is complete control), Cocklebur” value (cocklebur; Rate 250 g/ha, Postemergence) was 0. The “Cocklebur plant response rating” value (cocklebur; [7]) was 0, the “Redroot pigweed plant response rating” value (pigweed; [1]) was 0 and the “Redroot pigweed plant response rating” value (pigweed; [2]) was 0. The “Plant response rating, Redroot pigweed” value (pigweed; [3]) was 0, the “Redroot pigweed plant response rating” value (pigweed; [6]) was 0 and the “Plant response rating (0 to 10; 0 is no effect, 10 is complete control), Redroot pigweed” value (pigweed; Rate 250 g/ha, Postemergence) was 0. For the same compound, the “Redroot pigweed plant response rating” value (pigweed; [7]) was 0, the “Bedstraw plant response rating” value (bedstraw; [1]) was 0 and the “Bedstraw plant response rating” value (bedstraw; [2]) was 0. For the same compound, the “Plant response rating, Bedstraw” value (bedstraw; [3]) was 0, the “Bedstraw plant response rating” value (bedstraw; [4]) was 0 and the “Bedstraw plant response rating” value (bedstraw; [5]) was 0. The “Bedstraw plant response rating” value (bedstraw; [6]) was 0, the “Nutsedge plant response rating” value (purple nutsedge; [1]) was 0 and the “Nutsedge plant response rating” value (purple nutsedge; [2]) was 0. For the same compound, the “Plant response rating, Nutsedge” value (purple nutsedge; [3]) was 0, the “Nutsedge plant response rating” value (purple nutsedge; [6]) was 0 and the “Plant response rating (0 to 10; 0 is no effect, 10 is complete control), Nutsedge” value (purple nutsedge; Rate 250 g/ha, Postemergence) was 0. For the same compound, the “Nutsedge plant response rating” value (purple nutsedge; [7]) was 0, the “Wild oats plant response rating” value (wild oat; [1]) was 0 and the “Wild oats plant response rating” value (wild oat; [2]) was 0. The “Plant response rating, Wild oats” value (wild oat; [3]) was 0, the “Wild oats plant response rating” value (wild oat; [6]) was 0 and the “Wild oats plant response rating” value (wild oat; [7]) was 0. The “Velvetleaf plant response rating” value (velvetleaf; [1]) was 0, the “Velvetleaf plant response rating” value (velvetleaf; [2]) was 0 and the “Plant response rating, Velvetleaf” value (velvetleaf; [3]) was 3. For the same compound, the “Velvetleaf plant response rating” value (velvetleaf; [6]) was 0, the “Velvetleaf plant response rating” value (velvetleaf; [7]) was 2 and the “Soybean plant response rating” value (soybean; [1]) was 0. For the same compound, the “Soybean plant response rating” value (soybean; [2]) was 0, the “Plant response rating, Soybean” value (soybean; [3]) was 0 and the “Soybean plant response rating” value (soybean; [6]) was 0. The “Soybean plant response rating” value (soybean; [7]) was 1, the “Rape plant response rating” value (rape; [1]) was 0 and the “Rape plant response rating” value (rape; [2]) was 0. The “Plant response rating, Rape” value (rape; [3]) was 0, the “Rape plant response rating” value (rape; [6]) was 0 and the “Plant response rating (0 to 10; 0 is no effect, 10 is complete control), Rape” value (rape; Rate 250 g/ha, Postemergence) was 0. The “Rape plant response rating” value (rape; [7]) was 0, the “Corn plant response rating” value (corn; [1]) was 0 and the “Corn plant response rating” value (corn; [2]) was 0. The “Plant response rating, Corn” value (corn; [3]) was 0, the “Corn plant response rating” value (corn; [4]) was 0 and the “Corn plant response rating” value (corn; [5]) was 0. For the same compound, the “Corn plant response rating” value (corn; [6]) was 0, the “Plant response rating (0 to 10; 0 is no effect, 10 is complete control), Corn” value (corn; Rate 250 g/ha, Postemergence) was 0 and the “Corn plant response rating” value (corn; [7]) was 0. For the same compound, the “Wheat plant response rating” value (wheat; [1]) was 0, the “Wheat plant response rating” value (wheat; [2]) was 0 and the “Plant response rating, Wheat” value (wheat; [3]) was 0. The “Wheat plant response rating” value (wheat; [6]) was 0, the “Wheat plant response rating” value (wheat; [7]) was 2 and the “Crabgrass plant response rating” value (crabgrass; [1]) was 0. For the same compound, the “Crabgrass plant response rating” value (crabgrass; [2]) was 0, the “Plant response rating, Crabgrass” value (crabgrass; [3]) was 2 and the “Crabgrass plant response rating” value (crabgrass; [6]) was 0. For the same compound, the “Plant response rating (0 to 10; 0 is no effect, 10 is complete control), Crabgrass” value (crabgrass; Rate 250 g/ha, Postemergence) was 0 and the “Crabgrass plant response rating” value (crabgrass; [7]) was 2.
